Measured values as given in the NIST ThermoML archive (doi:10.1021/je049932z).
Numbers after ± are expanded uncertainties.

Assays:
[1] = wn = mass fraction of the nth substance listed; conditions: 293.15 K; for mass density / viscosity: 101.3 kPa, Liquid
[2] = 293.15 K

O [water] + CCOCCOCCOCC
[1], w2 = 0
Conditions	mass density [kg/m3]	surface tension liquid-gas [mN/m]	viscosity [mPa·s]
–	997.2 ± 4.8	72.75 ± 2.8	1.002 ± 0.032

CCOCCOCCOCC [diethylene glycol diethyl ether]
Conditions	surface tension liquid-gas [mN/m]
[2]	29.27 ± 1.6

[2], 101.3 kPa, Liquid
Conditions	mass density [kg/m3]	viscosity [mPa·s]
–	907.3 ± 4.2	1.346 ± 0.042

O [water]
Conditions	surface tension liquid-gas [mN/m]
[2]	72.75 ± 2.8

Conditions	viscosity [mPa·s]
[2], 101.3 kPa, Liquid	1.002 ± 0.032

CCOCCOCCOCC [diethylene glycol diethyl ether] + O
[1]
Conditions	mass density [kg/m3]	surface tension liquid-gas [mN/m]	viscosity [mPa·s]
w1 = 0.0033	–	69.73 ± 2.8	–
w1 = 0.00984	–	66.53 ± 2.7	–
w1 = 0.01771	–	56.82 ± 2.4	–
w1 = 0.03207	–	45.57 ± 2.1	–
w1 = 0.05896	996.7 ± 4.8	36.39 ± 1.8	1.18 ± 0.037
w1 = 0.07683	996.9 ± 4.8	–	1.265 ± 0.039
w1 = 0.1038	997.1 ± 4.8	–	1.451 ± 0.044
w1 = 0.1227	997.2 ± 4.8	–	1.551 ± 0.047
w1 = 0.1425	998.2 ± 4.8	–	1.701 ± 0.051
w1 = 0.1611	998.5 ± 4.8	35.71 ± 1.8	1.839 ± 0.055
w1 = 0.1951	998.6 ± 4.8	–	2.149 ± 0.063
w1 = 0.2207	999.3 ± 4.8	–	2.414 ± 0.071
w1 = 0.2547	999.1 ± 4.8	34.92 ± 1.8	2.707 ± 0.079
w1 = 0.2828	999.8 ± 4.8	–	2.961 ± 0.086
w1 = 0.3185	999.5 ± 4.8	–	3.302 ± 0.095
w1 = 0.3578	999.1 ± 4.8	34.11 ± 1.8	3.637 ± 0.1
w1 = 0.3773	996.6 ± 4.8	–	3.781 ± 0.11
w1 = 0.4231	994.6 ± 4.8	–	4.088 ± 0.12
w1 = 0.4474	993.1 ± 4.8	32.3 ± 1.7	4.218 ± 0.12
w1 = 0.5151	989 ± 4.7	–	4.462 ± 0.13
w1 = 0.5769	981.1 ± 4.7	30.54 ± 1.7	4.452 ± 0.13
w1 = 0.6029	979.1 ± 4.7	–	4.403 ± 0.12
w1 = 0.6385	973.1 ± 4.6	30.21 ± 1.6	4.27 ± 0.12
w1 = 0.6814	966.4 ± 4.6	–	4.033 ± 0.12
w1 = 0.7256	960.1 ± 4.6	–	3.741 ± 0.11
w1 = 0.7794	949.6 ± 4.5	30.46 ± 1.6	3.189 ± 0.092
w1 = 0.8549	940.7 ± 4.4	30.2 ± 1.6	2.599 ± 0.076
w1 = 0.9195	926.2 ± 4.3	–	1.943 ± 0.058
w1 = 0.9401	920.7 ± 4.3	30.01 ± 1.6	1.75 ± 0.05
w1 = 0.9769	912.8 ± 4.3	–	1.467 ± 0.045
w1 = 1	907.3 ± 4.2	29.27 ± 1.6	1.346 ± 0.042
